Key:
[1] = target: recombinant human 5-HT5A receptor (Homo sapiens, UniProt P47898); assay: [3H]LSD radioligand binding assay; conditions: [3H]LSD (approximately 1 nM); membranes from HEK-EBNA cells transiently expressing 5-HT5A; Ki by Cheng-Prussoff equation; read-out: Ki
Summary of the method: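 Membranes from HEK-EBNA cells transiently expressing the receptor, with ~1 nM [3H]LSD in 50 mM Tris, 1 mM EGTA, 10 mM MgCl2, 10 μM pargyline, pH 7.4, SPA bead format. Incubated 120 min RT; nonspecific binding defined with 2 μM methiothepin. 10 concentrations in duplicate; IC50 converted to Ki via Cheng-Prusoff.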

Sequence of recombinant human 5-HT5A receptor (P47898 whole entry): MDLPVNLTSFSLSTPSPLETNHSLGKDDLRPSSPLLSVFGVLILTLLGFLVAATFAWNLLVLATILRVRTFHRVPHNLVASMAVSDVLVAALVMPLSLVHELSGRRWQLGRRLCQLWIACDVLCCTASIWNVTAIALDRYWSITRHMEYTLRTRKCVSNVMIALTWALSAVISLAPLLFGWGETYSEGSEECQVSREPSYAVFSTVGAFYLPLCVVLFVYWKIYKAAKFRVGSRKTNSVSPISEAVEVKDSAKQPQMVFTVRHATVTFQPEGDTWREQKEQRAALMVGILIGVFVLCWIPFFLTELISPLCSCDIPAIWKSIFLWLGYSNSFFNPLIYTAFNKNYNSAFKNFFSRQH

Compound | Ki [1] [nM] | melting point [°C]
C(=C\c1ccc2c(c1)COC(N[C@@H]1CCc3ccccc31)=N2)/c1ccccc1 [Example 140, (R)-Indan-1-yl-[6-((E)-styryl)-4H-benzo[d][1,3]oxazin-2-yl]-amine] | 17.6 | 162
Cc1nnc(Nc2ccc3c(c2)COC(N[C@@H]2CCc4ccccc42)=N3)o1 [Example 118, N^2—(R)-Indan-1-yl-N^6-(5-methyl-[1,3,4]oxadiazol-2-yl)-4H-benzo[d][1,3]oxazine-2,6-diamine] | 1.4 | 137
COc1cccc2c1C(NC1=Nc3ccc(Br)cc3CO1)CO2 (racemic) [Example 54, rac-(6-Bromo-4H-benzo[d][1,3]oxazin-2-yl)-(4-methoxy-2,3-dihydro-benzofuran-3-yl)-amine] | 125 | 132.5
COc1cccc2c1C(NC1=Nc3ccc(Nc4nnc(C)o4)cc3CO1)CO2 (racemic) [Example 107, rac-N^2-(4-Methoxy-2,3-dihydro-benzofuran-3-yl)-N^6-(5-methyl-[1,3,4]oxadiazol-2-yl)-4H-benzo[d][1,3]oxazine-2,6-diamine] | 10.1 | 191
COc1cccc2c1C(NC1=Nc3ccc(Nc4nnc(C5CC5)o4)cc3CO1)CC2 (racemic) [Example 111, rac-N^6-(5-Cyclopropyl-[1,3,4]oxadiazol-2-yl)-N^2-(7-methoxy-indan-1-yl)-4H-benzo[d][1,3]oxazine-2,6-diamine] | 1.65 | 204
Brc1ccc2c(c1)COC(N[C@@H]1CCc3ccccc31)=N2 [Example 32, (6-Bromo-4H-benzo[d][1,3]oxazin-2-yl)-(R)-indan-1-yl-amine] | 25.2 | 123
N=C(NO)c1ccc2c(c1)COC(N[C@@H]1CCc3ccccc31)=N2 [Example 130, N-Hydroxy-2-((R)-indan-1-ylamino)-4H-benzo[d][1,3]oxazine-6-carboxamidine] | 11.6 | 206
Fc1ccc2c(c1)CCC2NC1=Nc2ccc(Nc3nnc(C(F)(F)F)o3)cc2CO1 (racemic) [Example 148, rac-N^2-(5-Fluoro-indan-1-yl)-N^6-(5-trifluoromethyl-[1,3,4]oxadiazol-2-yl)-4H-benzo[d][1,3]oxazine-2,6-diamine] | 14.1 | 142
C(=C\c1ccc2c(c1)COC(N[C@@H]1CCc3ccccc31)=N2)/c1cccnc1 [Example 143, (R)-Indan-1-yl-[6-((E)-2-pyridin-3-yl-vinyl)-4H-benzo[d][1,3]oxazin-2-yl]-amine] | 7.62 | 132
COc1cccc2c1C(NC1=Nc3ccc(Br)cc3CO1)CC2 (racemic) [Example 74, rac-(6-Bromo-4H-benzo[d][1,3]oxazin-2-yl)-(7-methoxy-indan-1-yl)-amine] | 13.8 | 151
COc1cccc2c1C(NC1=Nc3ccc(Nc4nnc(C(F)(F)F)o4)cc3CO1)CC2 (racemic) [Example 144, rac-N^2-(7-Methoxy-indan-1-yl)-N^6-(5-trifluoromethyl-[1,3,4]oxadiazol-2-yl)-4H-benzo[d][1,3]oxazine-2,6-diamine] | 8.44 | 173
FC(F)(F)c1nnc(Nc2ccc3c(c2)COC(N[C@@H]2CCc4ccccc42)=N3)o1 [Example 138, N^2—(R)-Indan-1-yl-N^6-(5-trifluoromethyl-[1,3,4]oxadiazol-2-yl)-4H-benzo[d][1,3]oxazine-2,6-diamine] | 8.76 | 155
COc1cccc2c1C(NC1=Nc3ccc(Nc4nnc(C(F)(F)F)o4)cc3CO1)CO2 (racemic) [Example 145, rac-N^2-(4-Methoxy-2,3-dihydro-benzofuran-3-yl)-N^6-(5-trifluoromethyl-[1,3,4]oxadiazol-2-yl)-4H-benzo[d][1,3]oxazine-2,6-diamine] | 40.2 | 212
Cc1nc(-c2ccc3c(c2)COC(N[C@@H]2CCc4ccccc42)=N3)no1 [Example 133, (R)-Indan-1-yl-[6-(5-methyl-[1,2,4]oxadiazol-3-yl)-4H-benzo[d][1,3]oxazin-2-yl]-amine] | 75.7 | 138

Reference: patent US8163740B2, “6-substituted benzoxazines” (Hoffmann-La Roche Inc., priority 2008, dated 2012)
